Literature values in patent publication US20020077465A1, “ADAM polynucleotides, polypeptides, and antibodies” (priority 2000, published 2002).
Where a SMILES comes first, the peptide text is derived from it. [ ]: non-standard residue; d: D form. The star is where a group is joined. 4Abz = Nc1ccc(C(=O)O)cc1; NHOH = ON*

Assays:
[1] = tested on: viruses containing the K103N mutation
MMP-1 = biological target: T1, MMP-1 (Homo sapiens, UniProt P03956); settings: read-out: IC50 against MMP-1
T1 sequence (P03956 100-469): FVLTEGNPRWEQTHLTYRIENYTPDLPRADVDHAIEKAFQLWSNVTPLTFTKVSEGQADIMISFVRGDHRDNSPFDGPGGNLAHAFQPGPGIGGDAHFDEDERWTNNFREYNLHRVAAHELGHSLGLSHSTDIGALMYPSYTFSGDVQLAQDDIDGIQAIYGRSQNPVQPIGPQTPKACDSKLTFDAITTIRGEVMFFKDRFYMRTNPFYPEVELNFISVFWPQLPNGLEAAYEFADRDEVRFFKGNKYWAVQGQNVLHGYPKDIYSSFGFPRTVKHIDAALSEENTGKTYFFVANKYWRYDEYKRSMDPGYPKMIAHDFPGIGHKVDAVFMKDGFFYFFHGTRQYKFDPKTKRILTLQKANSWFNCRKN

MMP-3 = MMP-3 (Homo sapiens, UniProt P08254); settings: read-out: IC50 against MMP-3
MMP-9 = MMP-9 (Homo sapiens, UniProt P14780); settings: read-out: IC50 against MMP-9
MMP-8 = MMP-8 (Homo sapiens, UniProt P22894); settings: read-out: IC50 against MMP-8
[2] = tested on: protease inhibitor-resistant viruses
[3] = tested on: human metastatic melanoma (M24 cells)
M24 cells = settings: murine metastasis model
[4] = tested on: lamivudine-resistant isolates; settings: a substantial proportion of lamivudine-resistant isolates
angiogenesis = settings: both in vitro and in vivo

Chain of MMP-3 (P08254 100-477, species assumed): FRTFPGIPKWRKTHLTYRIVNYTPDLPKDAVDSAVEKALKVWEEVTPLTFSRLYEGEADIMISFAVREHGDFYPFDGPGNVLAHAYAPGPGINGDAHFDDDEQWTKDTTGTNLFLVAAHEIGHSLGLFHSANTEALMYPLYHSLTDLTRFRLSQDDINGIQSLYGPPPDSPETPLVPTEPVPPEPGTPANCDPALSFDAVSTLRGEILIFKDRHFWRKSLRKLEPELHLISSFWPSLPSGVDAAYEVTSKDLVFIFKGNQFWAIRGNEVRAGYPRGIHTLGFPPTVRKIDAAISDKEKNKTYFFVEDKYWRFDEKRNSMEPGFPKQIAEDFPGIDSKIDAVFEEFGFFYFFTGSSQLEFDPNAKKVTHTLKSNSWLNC
Chain of MMP-9 (P14780 94-707, species assumed): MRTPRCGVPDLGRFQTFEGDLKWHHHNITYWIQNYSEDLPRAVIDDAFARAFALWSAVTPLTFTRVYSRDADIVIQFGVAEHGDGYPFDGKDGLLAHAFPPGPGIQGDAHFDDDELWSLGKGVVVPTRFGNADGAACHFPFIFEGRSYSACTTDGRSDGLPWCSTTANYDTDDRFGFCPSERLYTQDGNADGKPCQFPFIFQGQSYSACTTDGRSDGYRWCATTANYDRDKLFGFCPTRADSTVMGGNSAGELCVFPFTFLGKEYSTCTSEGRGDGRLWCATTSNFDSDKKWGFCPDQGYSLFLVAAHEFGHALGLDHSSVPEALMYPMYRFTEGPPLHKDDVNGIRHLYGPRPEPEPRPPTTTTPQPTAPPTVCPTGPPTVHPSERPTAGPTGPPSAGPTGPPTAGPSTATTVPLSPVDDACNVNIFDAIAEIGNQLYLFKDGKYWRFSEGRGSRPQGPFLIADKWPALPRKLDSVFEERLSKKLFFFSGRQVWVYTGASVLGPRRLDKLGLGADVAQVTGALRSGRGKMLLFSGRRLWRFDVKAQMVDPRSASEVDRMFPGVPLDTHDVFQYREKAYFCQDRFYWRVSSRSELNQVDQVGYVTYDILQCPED
Chain of MMP-8 (P22894 101-467, species assumed): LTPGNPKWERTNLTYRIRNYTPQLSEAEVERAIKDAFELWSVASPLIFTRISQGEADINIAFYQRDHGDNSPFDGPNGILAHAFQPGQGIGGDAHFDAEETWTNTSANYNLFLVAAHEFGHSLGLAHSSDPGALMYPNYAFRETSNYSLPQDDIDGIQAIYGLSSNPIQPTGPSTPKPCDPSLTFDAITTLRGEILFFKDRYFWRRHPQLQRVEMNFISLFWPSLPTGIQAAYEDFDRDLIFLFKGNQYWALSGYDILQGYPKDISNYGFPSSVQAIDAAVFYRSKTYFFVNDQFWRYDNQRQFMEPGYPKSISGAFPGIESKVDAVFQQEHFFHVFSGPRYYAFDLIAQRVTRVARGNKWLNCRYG

CC[C@H]1C(=O)Nc2ccc(F)cc2N1C(=O)OC(C)C [GW-420867X]
greater activity than HBY097 (HIV; relative to HBY097): 25 fold
activity against viruses containing the K103N mutation / K103N mutants [1]: active against K103N mutants

CC(C)C[C@@H](NC(=O)[C@@H]1CCCN1C(=O)CNC(=O)c1ccc(N)cc1)C(=O)N[C@H](C)C(=O)NO [MMP inhibitor I] (H-[4Abz]GP[dL][dA]-{NHOH})
IC50 (MMP-1): 1 µM
IC50 (MMP-3): 150 µM
IC50 (MMP-9): 30 µM
IC50 (MMP-8): 1 µM

Nc1nc(=O)n([C@@H]2CS[C@H](CO)O2)cc1F [COVIRACIL, emtricitabine]
greater activity in vitro than lamivudine (3TC) (HIV; in vitro, relative to lamivudine (3TC)): 3- to 10 fold

Nc1nc(=O)n([C@H]2C=C[C@@H](CO)O2)cc1F [D-D4FC]
activity against AZT/3TC-resistant virus (AZT/3TC-resistant virus): activity against AZT/3TC-resistant virus

Cc1ccccc1CNC(=O)[C@H]1N(C(=O)[C@@H](O)[C@H](Cc2ccccc2)NC(=O)c2cccc(O)c2C)CSC1(C)C [AG-1776]
in vitro activity against protease inhibitor-resistant viruses [2]: in vitro activity

contortrostatin
inhibition of M24 cell adhesion to laminin ([3]; laminin): not
inhibition of M24 cell adhesion to type I collagen, vitronectin, and fibronectin ([3]; type I collagen, vitronectin, fibronectin): inhibit
inhibition of lung colonization of M24 cells (M24 cells): inhibits

Nc1ccn([C@H]2CO[C@@H](CO)S2)c(=O)n1 [dOTC]
activity against lamivudine-resistant isolates [4]: retains activity

C[C@H](Sc1nc(N)cc(Cl)n1)c1cc2ccoc2cn1 [PNU-142721]
greater activity than its predecessor delavirdine (HIV; relative to delavirdine): 20- to 50 fold
activity against viruses containing the K103N mutation / K103N mutants [1]: active against K103N mutants

B1: METH1 polypeptides: metalloprotease thrombospondin polypeptides encoded by the human METH1 gene (WO99/37660) (protein, UniProt Q9UHI8 253-967, looked up)
A disintegrin and …: FVSSHRYVETMLVADQSMAEFHGSGLKHYLLTLFSVAARLYKHPSIRNSVSLVVVKILVIHDEQKGPEVTSNAALTLRNFCNWQKQHNPPSDRDAEHYDTAILFTRQDLCGSQTCDTLGMADVGTVCDPSRSCSVIEDDGLQAAFTTAHELGHVFNMPHDDAKQCASLNGVNQDSHMMASMLSNLDHSQPWSPCSAYMITSFLDNGHGECLMDKPQNPIQLPGDLPGTSYDANRQCQFTFGEDSKHCPDAASTCSTLWCTGTSGGVLVCQTKHFPWADGTSCGEGKWCINGKCVNKTDRKHFDTPFHGSWGMWGPWGDCSRTCGGGVQYTMRECDNPVPKNGGKYCEGKRVRYRSCNLEDCPDNNGKTFREEQCEAHNEFSKASFGSGPAVEWIPKYAGVSPKDRCKLICQAKGIGYFFVLQPKVVDGTPCSPDSTSVCVQGQCVKAGCDRIIDSKKKFDKCGVCGGNGSTCKKISGSVTSAKPGYHDIITIPTGATNIEVKQRNQRGSRNNGSFLAIKAADGTYILNGDYTLSTLEQDIMYKGVVLRYSGSSAALERIRSFSPLKEPLTIQVLTVGNALRPKIKYTYFVKKKKESFNAIPTFSAWVIEEWGECSKSCELGWQRRLVECRDINGQPASECAKEVKPASTRPCADHPCPQWQLGEWSSCSKTCGKGYKKRSLKCLSHDGGVLSHESCDPLKKPKHFIDFCTMAECS
inhibition of angiogenesis (angiogenesis): potent inhibitors
